Assay results taken from ChEMBL document CHEMBL3853357, “Discovery of a Series of 5,11-Dihydro-6H-benzo[e]pyrimido[5,4-b][1,4]diazepin-6-ones as Selective PI3K-δ/γ Inhibitors” (ACS Med Chem Lett, 2016).
The source made the active and inactive calls. No cut-off for these calls is given here.

What was measured:
[1] = target: T1, Phosphatidylinositol 4,5-bisphosphate 3-kinase catalytic subunit delta isoform (Homo sapiens, UniProt O00329); assay: Inhibition of human PI3Kdelta (R108 to Q1044 residues) expressed in mammalian expression system incubated for 60 mins by ADAPTA assay
T1 sequence (O00329 whole entry): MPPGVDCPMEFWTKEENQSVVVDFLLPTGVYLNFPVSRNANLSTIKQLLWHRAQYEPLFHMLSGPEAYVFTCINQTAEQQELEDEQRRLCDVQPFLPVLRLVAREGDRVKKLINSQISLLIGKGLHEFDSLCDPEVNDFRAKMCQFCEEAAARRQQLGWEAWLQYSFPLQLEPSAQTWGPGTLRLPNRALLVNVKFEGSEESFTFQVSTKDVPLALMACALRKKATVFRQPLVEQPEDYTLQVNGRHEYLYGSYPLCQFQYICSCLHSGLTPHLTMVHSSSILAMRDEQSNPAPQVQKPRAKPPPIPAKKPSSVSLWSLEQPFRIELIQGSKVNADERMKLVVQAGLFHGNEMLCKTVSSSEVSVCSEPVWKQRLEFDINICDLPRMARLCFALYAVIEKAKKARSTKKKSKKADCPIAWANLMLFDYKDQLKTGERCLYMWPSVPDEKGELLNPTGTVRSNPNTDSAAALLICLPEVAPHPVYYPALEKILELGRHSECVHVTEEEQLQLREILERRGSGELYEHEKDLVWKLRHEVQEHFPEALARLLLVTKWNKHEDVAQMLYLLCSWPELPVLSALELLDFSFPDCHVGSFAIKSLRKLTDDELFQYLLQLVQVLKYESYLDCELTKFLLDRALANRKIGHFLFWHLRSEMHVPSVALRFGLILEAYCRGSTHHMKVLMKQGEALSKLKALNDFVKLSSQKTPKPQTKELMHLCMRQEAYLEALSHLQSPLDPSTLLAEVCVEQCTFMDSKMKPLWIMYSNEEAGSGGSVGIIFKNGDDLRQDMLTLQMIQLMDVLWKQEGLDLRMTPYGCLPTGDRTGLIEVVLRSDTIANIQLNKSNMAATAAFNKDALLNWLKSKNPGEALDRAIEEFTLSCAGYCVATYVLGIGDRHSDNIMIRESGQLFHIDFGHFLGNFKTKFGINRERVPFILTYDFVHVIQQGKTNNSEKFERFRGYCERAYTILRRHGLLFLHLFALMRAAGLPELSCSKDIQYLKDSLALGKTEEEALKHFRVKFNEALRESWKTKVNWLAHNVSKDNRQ

[2] = target: Phosphatidylinositol 4,5-bisphosphate 3-kinase catalytic subunit gamma isoform (Homo sapiens, UniProt P48736); assay: Inhibition of human PI3Kgamma (S144 to A1102 residues) expressed in mammalian expression system incubated for 60 mins by ADAPTA assay
Phosphatidylinositol 4,5-bisphosphate 3-kinase catalytic subunit gamma isoform, sequence (P48736 whole entry, the tested form may be a part, canonical isoform): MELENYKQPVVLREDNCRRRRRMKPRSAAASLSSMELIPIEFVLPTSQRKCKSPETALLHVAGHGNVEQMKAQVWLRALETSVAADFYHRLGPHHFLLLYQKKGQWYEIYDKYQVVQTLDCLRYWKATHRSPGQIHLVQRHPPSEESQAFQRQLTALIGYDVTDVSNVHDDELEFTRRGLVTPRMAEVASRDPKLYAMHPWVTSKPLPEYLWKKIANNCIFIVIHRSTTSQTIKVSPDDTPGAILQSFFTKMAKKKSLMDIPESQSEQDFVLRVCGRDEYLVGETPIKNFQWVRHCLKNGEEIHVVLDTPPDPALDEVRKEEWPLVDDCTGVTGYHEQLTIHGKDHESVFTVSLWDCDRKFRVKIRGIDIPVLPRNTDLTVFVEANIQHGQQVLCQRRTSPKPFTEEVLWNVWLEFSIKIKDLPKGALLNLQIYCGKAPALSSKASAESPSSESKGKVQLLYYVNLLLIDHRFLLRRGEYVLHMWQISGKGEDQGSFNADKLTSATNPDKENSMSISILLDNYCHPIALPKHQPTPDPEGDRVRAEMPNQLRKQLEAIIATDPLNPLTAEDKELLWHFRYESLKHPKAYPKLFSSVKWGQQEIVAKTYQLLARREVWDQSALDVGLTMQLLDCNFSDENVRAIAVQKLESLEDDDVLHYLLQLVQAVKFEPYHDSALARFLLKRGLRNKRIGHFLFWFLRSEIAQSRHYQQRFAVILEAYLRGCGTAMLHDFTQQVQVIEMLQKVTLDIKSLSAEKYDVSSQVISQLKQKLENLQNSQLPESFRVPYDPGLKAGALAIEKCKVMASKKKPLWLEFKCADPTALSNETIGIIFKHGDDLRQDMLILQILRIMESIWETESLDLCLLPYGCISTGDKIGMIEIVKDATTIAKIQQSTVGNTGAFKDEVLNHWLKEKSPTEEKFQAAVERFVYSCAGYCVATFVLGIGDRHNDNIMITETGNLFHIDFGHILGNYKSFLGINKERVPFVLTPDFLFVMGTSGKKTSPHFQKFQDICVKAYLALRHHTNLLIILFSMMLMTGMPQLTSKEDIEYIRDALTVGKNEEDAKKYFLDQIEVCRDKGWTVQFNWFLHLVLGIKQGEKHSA

Aurora kinase A = target: T2, Aurora kinase A (Homo sapiens, UniProt O14965); assay: Inhibition of human Aurora kinase A (E122 to K401 residues) expressed in mammalian expression system by Z'LYTE assay
T2 sequence (O14965 whole entry): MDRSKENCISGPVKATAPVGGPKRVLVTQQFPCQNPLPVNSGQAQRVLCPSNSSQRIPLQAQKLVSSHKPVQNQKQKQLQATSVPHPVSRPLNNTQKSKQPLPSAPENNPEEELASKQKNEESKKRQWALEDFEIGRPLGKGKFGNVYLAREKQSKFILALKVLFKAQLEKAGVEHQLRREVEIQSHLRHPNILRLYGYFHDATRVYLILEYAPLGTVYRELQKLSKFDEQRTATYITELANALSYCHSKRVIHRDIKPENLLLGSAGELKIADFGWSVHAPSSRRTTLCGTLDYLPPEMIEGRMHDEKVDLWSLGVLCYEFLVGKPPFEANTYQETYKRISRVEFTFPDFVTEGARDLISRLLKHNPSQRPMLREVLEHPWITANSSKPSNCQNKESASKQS

Aurora kinase B = Aurora kinase B (Homo sapiens, UniProt Q96GD4); assay: Inhibition of human Aurora kinase B (D25 to A303 residues) expressed in mammalian expression system by Z'LYTE assay
Aurora kinase B, sequence (Q96GD4 whole entry, the tested form may be a part): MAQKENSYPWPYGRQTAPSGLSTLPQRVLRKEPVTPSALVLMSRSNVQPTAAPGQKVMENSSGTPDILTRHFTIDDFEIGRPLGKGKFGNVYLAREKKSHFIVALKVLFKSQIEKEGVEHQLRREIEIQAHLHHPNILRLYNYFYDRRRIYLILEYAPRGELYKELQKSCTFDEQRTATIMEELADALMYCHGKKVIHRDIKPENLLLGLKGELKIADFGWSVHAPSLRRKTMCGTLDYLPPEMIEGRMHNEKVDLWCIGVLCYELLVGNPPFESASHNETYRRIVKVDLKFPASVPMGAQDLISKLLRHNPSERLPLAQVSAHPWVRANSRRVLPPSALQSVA

[3] = (§1) Antiproliferative activity against patient-derived IgM-stimulated CLL cells after 3 days by CellTiter-Glo assay; type: functional, cell-based; settings: Homo sapiens, 72 h
[4] = Antiproliferative activity against human MOLT4 cells after 3 days by CellTiter-Glo assay; type: functional, cell-based; settings: MOLT-4, 72 h
[5] = Antiproliferative activity against human Loucy cells after 3 days by CellTiter-Glo assay; type: functional, cell-based; settings: 72 h
[6] = Antiproliferative activity against human MOLM14 cells after 3 days by CellTiter-Glo assay; type: functional, cell-based; settings: MOLM-14, 72 h
[7] = Antiproliferative activity against human MV4-11 cells after 3 days by CellTiter-Glo assay; type: functional, cell-based; settings: MV4-11, 72 h
[8] = Antiproliferative activity against human Jurkat cells after 3 days by CellTiter-Glo assay; type: functional, cell-based; settings: 72 h
CLL = assay: as §1; type: functional, cell-based; settings: Homo sapiens
[9] = target: Phosphatidylinositol 4,5-bisphosphate 3-kinase catalytic subunit beta isoform (Homo sapiens) (UniProt P42338); assay: Inhibition of p110beta in HMEC assessed as reduction in Akt phosphorylation at Thr-308 residue at 0.01 to 1 uM after 1 hr by Western blot analysis
Phosphatidylinositol 4,5-bisphosphate 3-kinase catalytic subunit beta isoform (Homo sapiens), sequence (P42338 whole entry, looked up, the tested form may be a part, canonical isoform): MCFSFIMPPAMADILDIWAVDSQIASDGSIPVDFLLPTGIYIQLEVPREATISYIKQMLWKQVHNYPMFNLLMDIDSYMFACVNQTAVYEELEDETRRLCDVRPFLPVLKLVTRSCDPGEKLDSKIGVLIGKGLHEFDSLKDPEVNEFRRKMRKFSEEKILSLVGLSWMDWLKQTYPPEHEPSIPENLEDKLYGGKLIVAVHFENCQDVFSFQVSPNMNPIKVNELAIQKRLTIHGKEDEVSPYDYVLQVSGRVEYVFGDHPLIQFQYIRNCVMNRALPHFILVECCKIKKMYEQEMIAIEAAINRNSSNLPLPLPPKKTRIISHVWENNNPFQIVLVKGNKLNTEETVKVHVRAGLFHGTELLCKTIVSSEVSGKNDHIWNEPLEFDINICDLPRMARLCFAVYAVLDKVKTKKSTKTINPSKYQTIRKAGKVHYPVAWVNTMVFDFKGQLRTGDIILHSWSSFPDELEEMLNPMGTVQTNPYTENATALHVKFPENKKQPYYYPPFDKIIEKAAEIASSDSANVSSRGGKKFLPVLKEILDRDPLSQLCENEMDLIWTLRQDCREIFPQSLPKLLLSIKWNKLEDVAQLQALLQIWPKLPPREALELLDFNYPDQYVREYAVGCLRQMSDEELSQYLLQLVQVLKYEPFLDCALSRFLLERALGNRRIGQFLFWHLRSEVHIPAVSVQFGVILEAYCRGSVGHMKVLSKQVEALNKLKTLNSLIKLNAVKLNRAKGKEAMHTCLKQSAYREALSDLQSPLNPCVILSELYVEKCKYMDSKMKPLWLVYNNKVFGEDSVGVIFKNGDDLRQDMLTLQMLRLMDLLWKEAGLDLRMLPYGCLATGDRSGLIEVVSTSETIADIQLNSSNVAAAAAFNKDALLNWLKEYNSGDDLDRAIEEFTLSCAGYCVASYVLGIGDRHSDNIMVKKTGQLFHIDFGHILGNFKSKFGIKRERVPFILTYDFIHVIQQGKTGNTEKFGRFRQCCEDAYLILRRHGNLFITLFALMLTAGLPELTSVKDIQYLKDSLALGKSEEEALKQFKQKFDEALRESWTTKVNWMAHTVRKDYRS

[10] = target: Phosphatidylinositol 4,5-bisphosphate 3-kinase catalytic subunit beta isoform (Homo sapiens) (UniProt P42338); assay: Inhibition of p110beta in HMEC assessed as reduction in S6RP phosphorylation at Ser-235/236 residue at 0.01 to 1 uM after 1 hr by Western blot analysis
[11] = target: Phosphatidylinositol 4,5-bisphosphate 3-kinase catalytic subunit beta isoform (Homo sapiens) (UniProt P42338); assay: Inhibition of p110beta in HMEC assessed as reduction in Akt phosphorylation at Ser-473 residue at 0.01 to 1 uM after 1 hr by Western blot analysis
[12] = target: T3, Phosphatidylinositol 5-phosphate 4-kinase type-2 gamma (Homo sapiens) (UniProt Q8TBX8); assay: Inhibition of human PIP5K2C (M1 to A421 residues) expressed at 1 uM
T3 sequence (whole entry): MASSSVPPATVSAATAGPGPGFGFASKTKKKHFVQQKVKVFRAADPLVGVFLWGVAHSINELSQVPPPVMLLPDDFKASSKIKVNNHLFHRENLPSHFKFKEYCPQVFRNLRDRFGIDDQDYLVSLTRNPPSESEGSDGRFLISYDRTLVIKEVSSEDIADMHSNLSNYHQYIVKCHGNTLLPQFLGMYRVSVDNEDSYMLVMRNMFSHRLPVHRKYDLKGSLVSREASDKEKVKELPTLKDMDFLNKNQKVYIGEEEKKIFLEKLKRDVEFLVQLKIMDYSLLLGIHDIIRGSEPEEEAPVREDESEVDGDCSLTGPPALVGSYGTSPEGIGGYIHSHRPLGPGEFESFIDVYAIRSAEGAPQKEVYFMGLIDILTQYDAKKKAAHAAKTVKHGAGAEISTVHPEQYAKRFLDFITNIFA

SMILES | IC50 [1] [nM] | IC50 [2] [nM] | other results
CN1C(=O)c2ccccc2N(C)c2nc(Nc3cccc(S(N)(=O)=O)c3)ncc21 | 4.1 | 4.3 | IC50 (Aurora kinase A): 2.1 nM; IC50 (Aurora kinase B): 4.6 nM
CN1C(=O)c2ccccc2N(C)c2nc(Nc3ccc(S(N)(=O)=O)cc3)ncc21 | 49 | 15 | IC50 (Aurora kinase A): 4.8 nM; IC50 (Aurora kinase B): 13 nM
C=CC(=O)Nc1ccc(NS(=O)(=O)c2cccc(Nc3ncc4c(n3)N(C)c3ccc(C)cc3C(=O)N4C)c2)cc1 | 29 | 15 | 
C=CC(=O)NC1CCN(S(=O)(=O)c2ccc(Nc3ncc4c(n3)N(C)c3ccc(C)cc3C(=O)N4C)cc2)CC1 | 120 | 49 | 
CC[C@H](Nc1ncnc2[nH]cnc12)c1nc2cccc(F)c2c(=O)n1-c1ccccc1 [IDELALISIB] |  |  | IC50 [3]: > 10000 nM
Cc1ccc2c(c1)C(=O)N(C)c1cnc(Nc3cccc(S(N)(=O)=O)c3)nc1N2C | 76 | 110 | 
C=CC(=O)N1CCN(S(=O)(=O)c2ccc(Nc3ncc4c(n3)N(C)c3ccc(C)cc3C(=O)N4C)cc2)CC1 | 230 | 110 | 
C=CC(=O)Nc1ccc(NS(=O)(=O)c2ccc(Nc3ncc4c(n3)N(C)c3ccc(C)cc3C(=O)N4C)cc2)cc1 | 96 | 310 | 
Cc1ccc2c(c1)C(=O)N(C)c1cnc(Nc3cccc(S(=O)(=O)N4CCC(O)CC4)c3)nc1N2C | 2.1 | 6.5 | IC50 [4]: 1300 nM; IC50 [5]: 350 nM; IC50 [6]: 1000 nM; IC50 [7]: 620 nM; IC50 [3]: > 10000 nM; IC50 [8]: 1400 nM
Cc1ccc2c(c1)C(=O)N(C)c1cnc(Nc3cccc(S(=O)(=O)N4CCN(C)CC4)c3)nc1N2C | 51 | 560 | 
Cc1ccc2c(c1)C(=O)N(C)c1cnc(Nc3ccc(S(=O)(=O)N4CCC(O)CC4)cc3)nc1N2C | 41 | 58 | 
CCC(=O)N1CCN(S(=O)(=O)c2cccc(Nc3ncc4c(n3)N(C)c3ccc(C)cc3C(=O)N4C)c2)CC1 | 1.7 | 11 | IC50 [4]: 1200 nM; IC50 [5]: 720 nM; IC50 [6]: 610 nM; IC50 [7]: 960 nM; IC50 [3]: 3000 nM; Activity (CLL): Dose-dependent effect; IC50 [8]: 1600 nM
C[C@H](Nc1ncnc2nc[nH]c12)c1cc2cccc(Cl)c2c(=O)n1-c1ccccc1 [DUVELISIB] |  |  | IC50 [4]: 2300 nM; IC50 [5]: 980 nM; IC50 [6]: 1200 nM; IC50 [7]: 4400 nM; inhibition [9]: Active; IC50 [3]: > 10000 nM; IC50 [8]: 1900 nM; inhibition [10]: Active; inhibition [11]: Active
Cc1ccc2c(c1)C(=O)N(C)c1cnc(Nc3ccc(S(=O)(=O)N4CCN(C)CC4)cc3)nc1N2C | 2600 | 3300 | 
C=CC(=O)Nc1cccc(NS(=O)(=O)c2ccc(Nc3ncc4c(n3)N(C)c3ccc(C)cc3C(=O)N4C)cc2)c1 | 440 | 340 | 
C=CC(=O)NC1CCN(S(=O)(=O)c2cccc(Nc3ncc4c(n3)N(C)c3ccc(C)cc3C(=O)N4C)c2)CC1 | 20 | 120 | IC50 (Aurora kinase A): 350 nM
C=CC(=O)Nc1cccc(NS(=O)(=O)c2cccc(Nc3ncc4c(n3)N(C)c3ccc(C)cc3C(=O)N4C)c2)c1 | 39 | 330 | 
Cc1ccc2c(c1)C(=O)N(C)c1cnc(Nc3ccc(S(N)(=O)=O)cc3)nc1N2C | 30 | 20 | IC50 (Aurora kinase A): 16 nM; IC50 (Aurora kinase B): 4.2 nM
Cc1cc(S(N)(=O)=O)ccc1Nc1ncc2c(n1)N(C)c1ccccc1C(=O)N2C | 820 | 2400 | IC50 (Aurora kinase A): 4900 nM; IC50 (Aurora kinase B): 9400 nM
C=CC(=O)N1CCN(S(=O)(=O)c2cccc(Nc3ncc4c(n3)N(C)c3ccc(C)cc3C(=O)N4C)c2)CC1 | 1.5 | 2.8 | IC50 [4]: 33 nM; inhibition [12]: Active; IC50 [8]: 166 nM
